Converted amounts (≈) assume the structure as drawn. Where only a bound is given, the exact number is not on record here.

Data set [1] is described as follows: measurement of the solubility of compounds in water and diluted hydrochloric acid. The data set is classed as physicochemical. The following applies: thermodynamic from solid. The method, boiled down:
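About 1.0 mg solid shaken in 0.3 mL ultrapure water (pH~6) overnight or in dilute HCl (pH~1.5) for 1 h at room temperature, then centrifuged. Supernatant diluted 10-fold in acetonitrile and quantified by LC-MS against an acetonitrile standard curve; solubility = measured concentration × 10.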

For the next data set, the target named is EGFR (T790M) (Homo sapiens, UniProt P00533, T790M). As to the kind of experiment: experiment of inhibiting kinase activity, EGFR (T790M). The format is biochemical. The following applies: at 10 nM; read-out: inhibition rate EGFR(T790M). The protocol:
(§1) The inhibition rates of tested compounds on JAK1, JAK2, JAK3, TYK2, CDK7, CDK9, EGFR (T790M) and LRRK2 kinases were measured. The test concentrations of the compounds were 10 nM and 100 nM, and the detection was performed by replicate wells. Alternatively, compounds were 3-fold serial diluted from 10 µM for 10 concentrations in replicate wells.

Data set [2] deals with Wild-type EGFR kinase protein (Homo sapiens, UniProt P00533). Description: experiment of inhibiting EGFR kinase activity (TR-FRET method). The format is biochemical. The protocol:
The inhibitory effect of the compounds on EGFR kinase activity was measured by TR-FRET method. The diluted solutions of the compounds were transfered to a 384-well plate (784075, Greiner), the plate was sealed and centrifuged at a speed of 1000 g for 1 minute. Wild-type EGFR kinase protein at 2-fold final concentration was prepared in 1×kinase buffer, 5 µL of wild-type EGFR at 2-fold final concentration was added to 384-well plate, the well plate was centrifuged at 1000 g for 30 seconds, and left at room temperature for 10 minutes. A mixture of 2-fold TK-substrate-biotin (2 µM) and ATP was prepared in 1×kinase buffer, and 5 µL of the mixture of 2×TK-substrate-biotin (2 µM) and ATP was added to start the reaction. The well plate was centrifuged at 1000 g for 30 seconds, sealed and left at room temperature for 40 minutes. […] The fluorescence signal values at 615 nm (Cryptate) and 665 nm (XL665) were detected by using Envision 2104 microplate reader. […] The IC50 was calculated with GraphPad 8.0 and the dose-reponse curve of the compound was plotted as follows: y=Bottom+(Top-Bottom)/(1+10^((logic50-x)×hillslope)), where x was logarithm of inhibitor concentration; and y was % inhibition rate.
(In general: In TR-FRET formats the signal depends on donor and acceptor labels being close together.)

Data set [3] concerns the target T1, JAK3 (Mus musculus, UniProt Q62137).
T1 construct: endogenous in cells; host or cells: CTLL-2
T1 sequence (Q62137 1-1100): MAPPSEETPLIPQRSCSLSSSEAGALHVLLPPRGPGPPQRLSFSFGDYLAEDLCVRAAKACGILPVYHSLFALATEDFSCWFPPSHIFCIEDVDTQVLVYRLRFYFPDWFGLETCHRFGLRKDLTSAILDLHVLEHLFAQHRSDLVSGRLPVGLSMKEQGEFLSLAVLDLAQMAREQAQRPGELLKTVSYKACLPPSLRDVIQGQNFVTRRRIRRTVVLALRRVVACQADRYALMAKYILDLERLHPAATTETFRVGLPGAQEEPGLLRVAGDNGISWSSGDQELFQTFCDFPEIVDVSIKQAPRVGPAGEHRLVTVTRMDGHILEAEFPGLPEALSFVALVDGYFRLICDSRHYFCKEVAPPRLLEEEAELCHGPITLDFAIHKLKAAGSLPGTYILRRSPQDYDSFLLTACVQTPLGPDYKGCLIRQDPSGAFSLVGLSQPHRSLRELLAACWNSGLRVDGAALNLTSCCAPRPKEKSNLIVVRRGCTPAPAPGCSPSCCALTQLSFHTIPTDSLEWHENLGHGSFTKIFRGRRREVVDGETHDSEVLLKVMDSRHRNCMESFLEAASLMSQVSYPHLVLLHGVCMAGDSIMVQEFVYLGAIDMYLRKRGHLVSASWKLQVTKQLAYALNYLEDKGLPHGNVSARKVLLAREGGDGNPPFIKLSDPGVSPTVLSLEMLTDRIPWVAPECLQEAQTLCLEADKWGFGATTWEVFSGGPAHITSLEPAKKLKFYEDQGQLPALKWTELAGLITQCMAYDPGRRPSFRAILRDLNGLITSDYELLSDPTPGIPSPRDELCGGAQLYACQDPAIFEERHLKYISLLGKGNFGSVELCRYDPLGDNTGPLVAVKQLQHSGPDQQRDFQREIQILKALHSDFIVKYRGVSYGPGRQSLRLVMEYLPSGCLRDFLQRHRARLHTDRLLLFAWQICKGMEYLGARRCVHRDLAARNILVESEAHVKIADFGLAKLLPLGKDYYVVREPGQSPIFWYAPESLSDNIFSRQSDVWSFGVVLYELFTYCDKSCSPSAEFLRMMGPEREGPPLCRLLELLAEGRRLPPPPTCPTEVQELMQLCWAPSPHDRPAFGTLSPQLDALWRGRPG
Description: JAKs cell activity test: JAK3_pSTAT5 in IL-2-induced CTLL-2 cells. The data set is classed as cell-based. The conditions noted are these: pSTAT5, IL-2-induced CTLL-2 cells. The protocol: (§2) THP1 cells were collected by centrifugation, resuspended with 1×HBSS, counted and diluted to a certain cell density. They were inoculated in a 384-well plate and cultured in a saturated humidity incubator with 37 °C and 5% CO2. The compound (DMSO final volume of 0.3%) was added to THP1 cells (10 doses in duplicates) and cultured in a saturated humidity incubator with 37 °C and 5% CO2. hIL-4 was added to stimulate cells and cultured in a saturated humidity incubator with 37 °C and 5% CO2. The lysis solution was added and incubated at room temperature. According to the instructions of AlphaLISA SureFire Ultra p-STAT6 detection kit, the lysis solution was transferred to pSTAT6 detection system, and the ALPHA signal was read by PE Envision microplate reader. The inhibition rate Inh%=((DMSO-sample)/(DMSO-background))×100 was calculated. IC50 was obtained by fitting with GraphPad Prism non-linear regression equation, and y=Bottom+(Top-Bottom)/(1+10^((LogIC50-x)×hillslope)), where x was the concentration of the compound and y was the inhibition rate.
(§3) JAK2_pSTAT5 was tesed in IL-3-induced BAF3 cells according to the above steps, and JAK3_pSTAT5 was tested in IL-2-induced CTLL-2 cells (without serum stimulation) according to the above steps.

The target in data set [4] is T2, JAK3 (Homo sapiens, UniProt P52333).
T2 sequence (P52333 1-1124): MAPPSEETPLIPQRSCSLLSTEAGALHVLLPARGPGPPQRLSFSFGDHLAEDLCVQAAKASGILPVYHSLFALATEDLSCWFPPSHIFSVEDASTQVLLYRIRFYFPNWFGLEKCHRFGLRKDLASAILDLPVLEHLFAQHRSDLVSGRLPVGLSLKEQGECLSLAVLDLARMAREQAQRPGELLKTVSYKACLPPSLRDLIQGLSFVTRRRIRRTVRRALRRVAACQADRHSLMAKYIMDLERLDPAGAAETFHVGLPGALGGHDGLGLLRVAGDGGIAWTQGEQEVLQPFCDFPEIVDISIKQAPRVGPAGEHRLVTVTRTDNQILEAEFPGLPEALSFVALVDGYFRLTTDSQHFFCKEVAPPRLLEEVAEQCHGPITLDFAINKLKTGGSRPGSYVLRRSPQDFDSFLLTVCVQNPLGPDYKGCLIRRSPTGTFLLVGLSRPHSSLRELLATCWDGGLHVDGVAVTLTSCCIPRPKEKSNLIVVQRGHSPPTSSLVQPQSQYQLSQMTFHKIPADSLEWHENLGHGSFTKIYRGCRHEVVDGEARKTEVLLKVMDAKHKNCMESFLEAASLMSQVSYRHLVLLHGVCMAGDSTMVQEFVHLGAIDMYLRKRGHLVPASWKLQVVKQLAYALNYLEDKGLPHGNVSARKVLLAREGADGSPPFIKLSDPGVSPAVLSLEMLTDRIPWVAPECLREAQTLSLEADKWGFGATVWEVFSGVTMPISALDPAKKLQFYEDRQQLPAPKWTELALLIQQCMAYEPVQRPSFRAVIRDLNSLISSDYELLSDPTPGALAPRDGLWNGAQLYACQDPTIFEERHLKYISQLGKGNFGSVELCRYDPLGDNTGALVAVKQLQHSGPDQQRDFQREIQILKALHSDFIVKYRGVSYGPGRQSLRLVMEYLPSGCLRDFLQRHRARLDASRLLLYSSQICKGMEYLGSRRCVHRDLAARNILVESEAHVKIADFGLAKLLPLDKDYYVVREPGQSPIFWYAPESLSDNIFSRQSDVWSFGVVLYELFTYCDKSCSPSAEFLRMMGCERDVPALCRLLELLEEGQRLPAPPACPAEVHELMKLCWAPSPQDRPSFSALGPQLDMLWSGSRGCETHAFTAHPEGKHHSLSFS
Description: experiment of inhibiting kinase activity (Caliper mobility shift assay), JAK3. The format is biochemical. The following applies: for IC50: kinase activity assay, Table 3. The method, boiled down: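 IC50 values come from variable-slope fits of % conversion inhibition versus log compound concentration. Kinase and inhibitor were preincubated for 10 min at room temperature, and the reaction was then initiated with ATP and substrate and read by mobility shift.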

The next data set has as its target TYK2 (Homo sapiens, UniProt P29597). As to the kind of experiment: experiment of inhibiting kinase activity, TYK2. The format is biochemical. The conditions noted are these: read-out: inhibition rate TYK2; for inhibition at 0.01 µM: at 10 nM; for inhibition at 0.1 µM: at 100 nM. The protocol:
as §1

For a further data set, the target named is T3, JAK2 (Mus musculus, UniProt Q62120).
T3 construct: endogenous in cells; host or cells: BAF3
T3 sequence (Q62120 whole entry): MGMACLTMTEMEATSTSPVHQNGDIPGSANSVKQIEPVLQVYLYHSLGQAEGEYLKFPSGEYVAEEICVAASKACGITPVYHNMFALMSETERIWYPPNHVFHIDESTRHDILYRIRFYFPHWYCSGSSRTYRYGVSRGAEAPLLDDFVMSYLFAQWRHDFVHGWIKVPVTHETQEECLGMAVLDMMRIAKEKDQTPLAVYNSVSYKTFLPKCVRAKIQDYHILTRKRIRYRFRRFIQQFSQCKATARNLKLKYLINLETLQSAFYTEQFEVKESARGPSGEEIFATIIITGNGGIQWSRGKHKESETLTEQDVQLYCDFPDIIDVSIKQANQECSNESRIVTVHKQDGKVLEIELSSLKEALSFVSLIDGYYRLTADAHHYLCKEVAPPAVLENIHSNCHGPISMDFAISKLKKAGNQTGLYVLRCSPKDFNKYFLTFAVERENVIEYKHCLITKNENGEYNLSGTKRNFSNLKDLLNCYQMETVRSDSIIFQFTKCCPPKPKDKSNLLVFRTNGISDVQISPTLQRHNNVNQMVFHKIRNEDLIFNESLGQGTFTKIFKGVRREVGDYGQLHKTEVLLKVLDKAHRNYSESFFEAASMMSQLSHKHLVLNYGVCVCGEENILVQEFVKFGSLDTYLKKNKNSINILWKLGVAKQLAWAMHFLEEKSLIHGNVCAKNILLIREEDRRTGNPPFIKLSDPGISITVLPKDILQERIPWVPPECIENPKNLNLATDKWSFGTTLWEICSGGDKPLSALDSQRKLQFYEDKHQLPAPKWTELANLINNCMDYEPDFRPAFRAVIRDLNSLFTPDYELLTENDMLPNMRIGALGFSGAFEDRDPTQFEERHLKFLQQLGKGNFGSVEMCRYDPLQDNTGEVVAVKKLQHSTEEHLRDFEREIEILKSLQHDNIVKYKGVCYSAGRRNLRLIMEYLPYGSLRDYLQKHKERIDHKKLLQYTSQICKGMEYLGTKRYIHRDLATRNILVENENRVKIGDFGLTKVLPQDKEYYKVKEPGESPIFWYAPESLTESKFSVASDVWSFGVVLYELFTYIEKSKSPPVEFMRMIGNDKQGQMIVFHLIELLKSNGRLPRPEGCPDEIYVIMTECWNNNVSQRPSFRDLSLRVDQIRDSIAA
As to the kind of experiment: JAKs cell activity test: JAK2_pSTAT5 in IL-3-induced BAF3 cells. The data set is classed as cell-based. The following applies: pSTAT5, IL-3-induced BAF3 cells. The protocol: as §2, §3

Chain of TYK2 (P29597 whole entry): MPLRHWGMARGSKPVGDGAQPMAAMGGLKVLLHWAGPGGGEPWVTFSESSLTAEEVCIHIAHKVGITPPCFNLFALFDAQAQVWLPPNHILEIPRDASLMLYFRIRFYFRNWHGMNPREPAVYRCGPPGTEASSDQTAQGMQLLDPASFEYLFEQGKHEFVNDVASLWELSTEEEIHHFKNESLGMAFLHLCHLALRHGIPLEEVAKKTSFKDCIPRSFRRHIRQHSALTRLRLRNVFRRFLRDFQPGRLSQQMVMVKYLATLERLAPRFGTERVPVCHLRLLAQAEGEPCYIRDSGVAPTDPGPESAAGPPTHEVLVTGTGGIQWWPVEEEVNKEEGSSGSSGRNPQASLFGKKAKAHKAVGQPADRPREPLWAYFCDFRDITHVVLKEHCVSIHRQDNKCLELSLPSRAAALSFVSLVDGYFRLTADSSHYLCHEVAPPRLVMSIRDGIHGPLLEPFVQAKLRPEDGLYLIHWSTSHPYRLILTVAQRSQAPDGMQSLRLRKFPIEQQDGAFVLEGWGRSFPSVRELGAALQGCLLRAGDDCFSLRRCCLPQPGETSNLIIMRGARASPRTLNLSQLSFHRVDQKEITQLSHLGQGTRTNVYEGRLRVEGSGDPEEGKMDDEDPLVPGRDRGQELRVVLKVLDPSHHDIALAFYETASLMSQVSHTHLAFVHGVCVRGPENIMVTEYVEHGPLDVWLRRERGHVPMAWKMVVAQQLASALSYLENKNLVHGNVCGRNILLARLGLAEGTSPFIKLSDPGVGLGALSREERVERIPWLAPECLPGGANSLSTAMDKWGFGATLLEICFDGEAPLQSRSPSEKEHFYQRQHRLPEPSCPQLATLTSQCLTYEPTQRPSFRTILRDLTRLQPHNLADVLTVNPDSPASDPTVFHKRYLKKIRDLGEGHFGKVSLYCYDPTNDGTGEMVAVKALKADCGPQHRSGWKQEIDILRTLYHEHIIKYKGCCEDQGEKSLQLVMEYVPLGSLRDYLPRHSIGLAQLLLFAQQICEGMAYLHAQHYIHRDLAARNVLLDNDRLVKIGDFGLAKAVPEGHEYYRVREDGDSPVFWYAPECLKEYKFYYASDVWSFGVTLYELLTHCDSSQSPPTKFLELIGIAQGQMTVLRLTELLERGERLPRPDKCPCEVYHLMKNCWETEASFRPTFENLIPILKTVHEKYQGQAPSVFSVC
Chain of EGFR (T790M) (P00533 25-1210 T790M): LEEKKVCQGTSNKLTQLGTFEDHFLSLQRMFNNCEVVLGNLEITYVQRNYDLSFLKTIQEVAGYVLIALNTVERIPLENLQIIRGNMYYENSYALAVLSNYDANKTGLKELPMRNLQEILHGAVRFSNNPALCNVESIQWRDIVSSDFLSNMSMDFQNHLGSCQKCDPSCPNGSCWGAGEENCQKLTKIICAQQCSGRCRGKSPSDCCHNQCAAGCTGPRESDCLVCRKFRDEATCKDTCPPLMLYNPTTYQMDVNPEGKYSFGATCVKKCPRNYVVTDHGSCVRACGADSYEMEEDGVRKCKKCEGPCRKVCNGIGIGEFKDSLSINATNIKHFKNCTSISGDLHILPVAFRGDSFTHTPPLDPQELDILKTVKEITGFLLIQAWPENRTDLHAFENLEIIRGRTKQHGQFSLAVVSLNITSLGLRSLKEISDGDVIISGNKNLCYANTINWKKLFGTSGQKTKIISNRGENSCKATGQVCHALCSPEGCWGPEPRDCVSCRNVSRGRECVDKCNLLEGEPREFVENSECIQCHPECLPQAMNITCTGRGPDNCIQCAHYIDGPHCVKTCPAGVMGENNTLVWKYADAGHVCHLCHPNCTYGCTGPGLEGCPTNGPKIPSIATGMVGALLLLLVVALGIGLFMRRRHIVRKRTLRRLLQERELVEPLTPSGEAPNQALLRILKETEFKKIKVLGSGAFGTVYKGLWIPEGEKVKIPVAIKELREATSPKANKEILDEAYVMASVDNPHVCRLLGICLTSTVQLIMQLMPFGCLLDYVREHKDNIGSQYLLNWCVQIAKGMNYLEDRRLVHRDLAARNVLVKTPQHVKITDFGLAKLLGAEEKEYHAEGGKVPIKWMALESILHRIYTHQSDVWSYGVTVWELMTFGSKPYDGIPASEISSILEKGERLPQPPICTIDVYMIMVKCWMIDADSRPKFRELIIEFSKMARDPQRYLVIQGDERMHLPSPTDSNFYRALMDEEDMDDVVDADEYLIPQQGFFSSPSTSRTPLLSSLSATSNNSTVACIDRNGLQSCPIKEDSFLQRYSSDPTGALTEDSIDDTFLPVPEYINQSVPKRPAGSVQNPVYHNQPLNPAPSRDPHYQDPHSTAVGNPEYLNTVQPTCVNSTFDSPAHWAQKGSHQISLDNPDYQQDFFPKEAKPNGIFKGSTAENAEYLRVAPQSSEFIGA
Chain of Wild-type EGFR kinase protein (P00533 25-1210): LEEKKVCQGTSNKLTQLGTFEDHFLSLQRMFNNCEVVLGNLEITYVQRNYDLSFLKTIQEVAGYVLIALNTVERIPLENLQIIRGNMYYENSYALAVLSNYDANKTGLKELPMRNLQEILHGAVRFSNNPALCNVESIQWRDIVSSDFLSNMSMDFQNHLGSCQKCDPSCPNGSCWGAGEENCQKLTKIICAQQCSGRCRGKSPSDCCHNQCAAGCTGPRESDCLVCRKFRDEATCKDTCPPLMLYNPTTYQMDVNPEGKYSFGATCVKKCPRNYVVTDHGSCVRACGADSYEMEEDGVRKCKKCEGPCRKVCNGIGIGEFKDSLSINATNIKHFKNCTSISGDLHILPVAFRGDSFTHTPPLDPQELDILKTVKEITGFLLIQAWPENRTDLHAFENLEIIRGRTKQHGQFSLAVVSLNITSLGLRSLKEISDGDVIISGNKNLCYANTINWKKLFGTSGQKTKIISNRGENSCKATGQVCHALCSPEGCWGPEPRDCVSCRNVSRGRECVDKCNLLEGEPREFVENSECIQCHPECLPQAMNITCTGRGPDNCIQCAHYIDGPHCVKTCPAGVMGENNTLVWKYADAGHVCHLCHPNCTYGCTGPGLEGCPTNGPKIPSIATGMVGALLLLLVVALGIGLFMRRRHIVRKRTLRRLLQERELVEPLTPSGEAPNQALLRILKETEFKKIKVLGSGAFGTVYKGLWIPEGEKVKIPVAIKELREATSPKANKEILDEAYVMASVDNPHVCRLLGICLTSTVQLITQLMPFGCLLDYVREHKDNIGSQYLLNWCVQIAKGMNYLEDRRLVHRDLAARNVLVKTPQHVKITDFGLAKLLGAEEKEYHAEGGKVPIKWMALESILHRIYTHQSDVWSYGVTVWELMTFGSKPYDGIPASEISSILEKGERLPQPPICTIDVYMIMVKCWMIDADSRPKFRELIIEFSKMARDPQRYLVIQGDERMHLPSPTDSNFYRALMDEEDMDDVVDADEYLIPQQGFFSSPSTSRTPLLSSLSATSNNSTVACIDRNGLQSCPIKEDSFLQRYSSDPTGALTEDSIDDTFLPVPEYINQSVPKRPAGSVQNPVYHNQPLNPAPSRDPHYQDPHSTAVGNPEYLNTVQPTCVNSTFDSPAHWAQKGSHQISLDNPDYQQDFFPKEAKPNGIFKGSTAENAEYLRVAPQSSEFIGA

The solubility is the concentration that dissolves in the medium under given conditions. Read a high solubility as much dissolved substance. A word on the inhibition: it is how much of the control response was suppressed. What is called IC50 is the concentration that gives 50% inhibition. The EC50 is the concentration giving half of the maximal effect. A low value points to greater potency. Regarding `C=CC(=O)Nc1cccc(Nc2nc(Nc3ccc4c(c3)OCCOCCN(C)CCO4)ncc2Cl)c1` [Example 54, N-(3-((5-chloro-2-((7-methyl-2,3,6,7,8,9-hexahydro-5H-benzo[b][1,4,7]trioxa[10]azacyclododecan-13-yl)amino)pyrimidin-4-yl)amino)phenyl)acrylamide], in data set [1] (simulated gastric fluid, diluted hydrochloric acid solution A (pH-1.5), room temperature, 1 hour), the solubility at 1 h was over 3730 µg/mL. The same compound displayed a solubility in data set [1] (ultrapure water (pH-6), room temperature overnight) of 886 µg/mL (≈ 1690 µM). Also, the inhibition at 0.01 µM at EGFR (T790M) was over 80%. Moreover, in data set [2], the IC50 is under 50 nM. This compound gave an EC50 on JAK3 [3] of 50 to 500 nM.

For `CCS(=O)(=O)N1CC(CC#N)(n2cc(-c3nc(Nc4ccc5c(c4)OCCN(C)CCO5)nc4[nH]ccc34)cn2)C1` [Example 28], at JAK3 [4], the IC50 was under 50 nM. On TYK2, the inhibition at 0.01 µM was over 80% and the inhibition at 0.1 µM is over 80%. In addition, at JAK2, the 50% effective concentration (EC50) fell in the range of 50 to 500 nM.

`CN1CCOc2ccc(Nc3nc(-c4cnn(C(CC#N)C5CCCC5)c4)c4cc[nH]c4n3)cc2OCC1` (centres unmarked) [Example 27]: the inhibition at 0.01 µM at JAK3 [4] (at 10 nM, read-out: inhibition rate JAK3) lay within 40 to 79%; at TYK2, 40 to 79%. Further, the inhibition at 0.1 µM at JAK3 [4] (at 100 nM, read-out: inhibition rate JAK3) is over 80%; on TYK2 it was over 80%. Besides, the IC50 on JAK3 [4] is under 50 nM. The compound also gave an EC50 on JAK2 of 50 to 500 nM.

Turning to `C=CC(=O)Nc1cccc(Nc2nc(Nc3ccc4c(c3)OCCN(C)CCOCCO4)ncc2Cl)c1` [Example 56, N-(3-((5-chloro-2-((7-methyl-2,3,6,7,8,9-hexahydro-5H-benzo[b][1,4,7]trioxa[10]azacyclododecan-12-yl)amino)pyrimidin-4-yl)amino)phenyl)acrylamide], the inhibition at 0.01 µM at EGFR (T790M) is over 80%. The compound further showed an IC50 in data set [2] of under 50 nM.

Source of the values: patent EP4592286A1, “MACROCYCLIC NITROGEN-CONTAINING CROWN ETHER COMPOUND AND USE THEREOF AS PROTEIN KINASE INHIBITOR” (Artivila Biopharma, priority 2022, dated 2024).
